How the values were obtained:
[1] = biological target: T1, A1 adenosine receptor (Homo sapiens, UniProt P30542); assay: Radioligand binding affinity, A1 adenosine receptor ([3H]CCPA, CHO cells); parameters: % hA1: dose or concentration left out as unconfirmed; conditions: for % hA1: percentage inhibition of specific binding of [3H]CCPA; for Ki: nM ± SEM, read-out: Ki(nM) hA1
T1 construct: expressed in transfected cells; host or cells: CHO cells (ATCC No. CCL-61)
T1 sequence (P30542 1-326): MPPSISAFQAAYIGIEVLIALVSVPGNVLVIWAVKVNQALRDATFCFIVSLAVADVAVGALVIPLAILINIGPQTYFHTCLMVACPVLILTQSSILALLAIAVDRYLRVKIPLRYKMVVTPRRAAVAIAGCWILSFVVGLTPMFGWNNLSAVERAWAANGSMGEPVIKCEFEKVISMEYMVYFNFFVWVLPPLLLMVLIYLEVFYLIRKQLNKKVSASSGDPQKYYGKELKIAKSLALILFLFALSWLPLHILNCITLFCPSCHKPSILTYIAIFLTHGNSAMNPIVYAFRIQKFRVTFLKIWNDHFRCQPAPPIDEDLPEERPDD

[2] = biological target: T2, A2A adenosine receptor (Homo sapiens, UniProt P29274); assay: Radioligand binding affinity, A2A adenosine receptor ([3H]CGS-21680, HEK 293 cell); conditions: for % hA2A: percentage inhibition of specific binding of 10 µM; for Ki: nM ± SEM, read-out: Ki(nM) hA2A
T2 construct: expressed in transfected cells; host or cells: HEK 293 cell
T2 sequence (P29274 whole entry): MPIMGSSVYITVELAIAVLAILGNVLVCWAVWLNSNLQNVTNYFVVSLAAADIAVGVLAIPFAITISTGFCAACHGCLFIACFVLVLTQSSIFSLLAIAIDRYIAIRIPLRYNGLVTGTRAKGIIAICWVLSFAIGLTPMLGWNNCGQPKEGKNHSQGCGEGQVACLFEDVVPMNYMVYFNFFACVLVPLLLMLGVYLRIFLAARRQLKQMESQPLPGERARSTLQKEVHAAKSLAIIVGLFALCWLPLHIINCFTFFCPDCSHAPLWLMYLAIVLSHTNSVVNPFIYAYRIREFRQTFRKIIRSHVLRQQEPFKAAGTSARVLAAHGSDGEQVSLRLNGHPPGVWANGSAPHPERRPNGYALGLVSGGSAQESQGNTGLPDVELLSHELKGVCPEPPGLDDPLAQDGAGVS

[3] = biological target: T3, A3 adenosine receptor (Homo sapiens, UniProt P0DMS8); assay: Radioligand binding affinity, A3 adenosine receptor ([125I]AB-MECA, CHO cells); parameters: % hA3: dose or concentration left out as unconfirmed; conditions: for Ki: nM ± SEM, read-out: Ki(nM) hA3
T3 construct: expressed in transfected cells; host or cells: CHO cells (ATCC No. CCL-61)
T3 sequence (P0DMS8 1-318): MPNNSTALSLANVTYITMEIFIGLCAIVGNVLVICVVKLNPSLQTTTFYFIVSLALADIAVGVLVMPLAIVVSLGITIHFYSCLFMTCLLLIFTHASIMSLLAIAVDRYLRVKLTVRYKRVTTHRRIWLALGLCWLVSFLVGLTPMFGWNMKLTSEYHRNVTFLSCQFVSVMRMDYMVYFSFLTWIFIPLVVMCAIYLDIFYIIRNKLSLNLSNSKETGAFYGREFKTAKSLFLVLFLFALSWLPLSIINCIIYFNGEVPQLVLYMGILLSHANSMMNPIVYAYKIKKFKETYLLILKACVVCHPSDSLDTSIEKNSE

[4] = test system: TPA-induced inflammation of the mouse ear; assay: Anti-inflammatory activity, TPA-induced mouse ear inflammation; format: in vivo, ICR mice; conditions: for anti-inflammatory activity: 0.5% in acetone, 20 µl, FIG. 11 (Exp. Ex. 12)
Protocol: The adenosine derivatives of the present invention were examined for anti-inflammatory activity in the following animal test. Seven-week-old male ICR mice were treated with TPA (12-O-tetradecanoylphorbol-13-acetate, 20 µl) in the right ear. […] Hydrocortisone was used at the same concentration as a control.
6 hrs after treatment with TPA, the mice were secondarily treated with the adenosine derivatives of the present invention. 24 hrs after TPA treatment, test animals were euthanized using a cervical dislocation method. Samples were obtained from the right ear using a 6 mm diameter punch. The activity was observed by measuring the ear sample using a microbalance. Percentages of inhibition were calculated using the following Equation 1. The compositions and amounts used in these experiments are summarized in Tables 14 to 17 and the anti-inflammatory activities thereof are shown in FIGS. 10 to 13. % Inhibition = (1−Rt.Ear(Test−Nontreated))/(Rt.Ear(TPAonly−Nontreated)) [formula]

[5] = 0.5% in a mixture of distilled water and acetone (1:4), FIG. 12 (Exp. Ex. 13)
[6] = 0.5% in a mixture of DMSO and acetone (1:9), FIG. 13 (Exp. Ex. 14)

Row | % hA1 [1] | % hA2A [2] | Ki [3] | Ki [1] | Ki [2] | % hA3 ([3]; percentage inhibition of specific binding) | SMILES | anti-inflammatory activity [4] | percentages of inflammation inhibition [4, 5] | percentages of inflammation inhibition [4, 6]
1 | 55.4 ± 1.8% | 45.0 ± 1.4% | 3.69 ± 0.25 nM | – | – | – | CNc1nc(Cl)nc2c1ncn2[C@@H]1SC[C@H](O)[C@@H]1O [Example 10, 2-(2-chloro-6-methylamino-purin-9-yl)tetrahydrothiophen-3,4-diol] | – | – | –
2 | – | – | 6.8 ± 3.4 nM | 790 ± 190 nM | 420 ± 32 nM | – | O[C@@H]1[C@H](O)CS[C@H]1n1cnc2c(NCc3cccc(Br)c3)ncnc21 [Example 13, (2R,3R,4S)-2-(6-(3-bromobenzylamino)-9H-purin-9-yl)tetrahydrothiophen-3,4-diol] | – | – | –
3 | – | – | 1.5 ± 0.4 nM | 860 ± 210 nM | 440 ± 110 nM | – | O[C@@H]1[C@H](O)CS[C@H]1n1cnc2c(NCc3cccc(Cl)c3)ncnc21 [Example 12, (2R,3R,4S)-2-(6-(3-chlorobenzylamino)-9H-purin-9-yl)tetrahydrothiophen-3,4-diol] | – | – | –
4 | 22.0% | -8.3% | 24.8 ± 8.1 nM | – | – | – | O[C@@H]1[C@H](O)CS[C@H]1n1cnc2c(NCc3cccc4ccccc34)nc(Cl)nc21 [Example 8, (2R,3R,4S)-2-(2-chloro-6-(naphthalen-1-ylmethylamino)-9H-purin-9-yl)tetrahydrothiophen-3,4-diol] | – | – | –
5 | 19.8% | 47.6% | 7.4 ± 1.3 nM | – | – | – | O[C@@H]1[C@H](O)CS[C@H]1n1cnc2c(NCc3cccc(F)c3)nc(Cl)nc21 [Example 1, (2R,3R,4S)-2-(2-chloro-6-(3-fluorobenzylamino)-9H-purin-9-yl)tetrahydrothiophen-3,4-diol] | increased | – | –
6 | 23.8% | – | 12.7 ± 3.7 nM | – | 4020 ± 1750 nM | – | COc1ccc(Cl)cc1CNc1nc(Cl)nc2c1ncn2[C@@H]1SC[C@@H](O)[C@H]1O [Example 6, (2R,3R,4S)-2-(2-chloro-6-(5-chloro-2-methoxybenzylamino)-9H-purin-9-yl)tetrahydrothiophen-3,4-diol] | increased | 34% | –
7 | – | – | 7.3 ± 0.6 nM | 1430 ± 420 nM | 1260 ± 330 nM | – | O[C@@H]1[C@H](O)CS[C@H]1n1cnc2c(NCc3cccc(F)c3)ncnc21 [Example 11, (2R,3R,4S)-2-(6-(3-fluorobenzylamino)-9H-purin-9-yl)tetrahydrothiophen-3,4-diol] | – | – | –
8 | 34.2% | 18.4% | 8.99 ± 5.17 nM | – | – | – | O[C@@H]1[C@H](O)CS[C@H]1n1cnc2c(NCc3cccc(Br)c3)nc(Cl)nc21 [Example 3, (2R,3R,4S)-2-(6-(3-bromobenzylamino)-2-chloro-9H-purin-9-yl)tetrahydrothiophen-3,4-diol] | – | – | –
9 | 12.8% | – | 25.8 ± 6.3 nM | – | 1600 ± 135 nM | – | O[C@@H]1[C@H](O)CS[C@H]1n1cnc2c(NCc3ccccc3Cl)nc(Cl)nc21 [Example 5, (2R,3R,4S)-2-(2-chloro-6-(2-chlorobenzylamino)-9H-purin-9-yl)tetrahydrothiophen-3,4-diol] | – | 17% | –
10 | 37.7% | 28.6% | 42.9 ± 8.9 nM | – | – | – | O[C@@H]1[C@H](O)CO[C@H]1n1cnc2c(NCc3cccc(I)c3)nc(Cl)nc21 [Example 16, (2R,3R,4R)-2-(2-chloro-6-(3-iodobenzylamino)-9H-purin-9-yl)tetrahydrofuran-3,4-diol] | – | – | 79%
11 | 39.8% | 22.8% | 13 ± 6.9 nM | – | – | – | O[C@@H]1[C@H](O)CO[C@H]1n1cnc2c(NCc3cccc(Br)c3)nc(Cl)nc21 [Example 15, (2R,3R,4R)-2-(6-(3-bromobenzylamino)-2-chloro-9H-purin-9-yl)tetrahydrofuran-3,4-diol] | – | – | 59%
12 | 9.4% | 17.5% | 19.9 ± 7.1 nM | – | – | – | COc1ccccc1CNc1nc(Cl)nc2c1ncn2[C@@H]1SC[C@@H](O)[C@H]1O [Example 7, (2R,3R,4S)-2-(2-chloro-6-(2-methoxybenzylamino)-9H-purin-9-yl)tetrahydrothiophen-3,4-diol] | – | 53% | –
13 | 13.1% | -0.18% | – | – | – | 41.5% | O=C(O)c1cccc(CNc2nc(Cl)nc3c2ncn3[C@@H]2SC[C@@H](O)[C@H]2O)c1 [Example 9, 3-((2-chloro-9-((2R,3R,4S)-3,4-dihydroxytetrahydrothiophen-2-yl)-9H-purine-6-ylamino)methyl)benzoic acid] | – | – | –

— patent publication EP4186514A1, “PHARMACEUTICAL COMPOSITION FOR PREVENTING OR TREATING CHOLANGITIS OR LIVER DISEASE CAUSED BY CHOLANGITIS COMPRISING ADENOSINE DERIVATIVE” (Future Medicine Co., Ltd., priority 2021, dated 2023)
